The numbers were not newly measured in patent publication US8636973B2, “Method of producing pharmacologically pure crystals” (Biosyn Arzneimittel GmbH, priority 2010, dated 2014), which cites them from elsewhere.

The structures appear in SMILES notation.

For series [1] the following is noted: Janitzki, solubility studies.
For series [2] the following is noted: 14° C.

For `O.O.O.O.O.O.O.O.O=[Se]([O-])[O-].[Na+].[Na+]` [Na2SeO3×8 H2O, Na2SeO3×8H2O], the “temperature at which the form is stable / exists” value in series [1] is “up to −8.7 °C”.

With `O=[Se]=O` [SeO2, selenium dioxide], in series [2], the solubility is recorded as 0.384 kg/l H2O.
